From publication PMC10810742 (The Journal of Biological Chemistry, 2023)

Molecular target: T1, CteC36–276 (Chromobacterium violaceum, UniProt Q7NY09)
T1 construct: gene cteC; residues 36-276 (disordered N-terminal 1-35 removed); SeMet form for the crystal
Experiment: isothermal titration calorimetry
Type: binding

T1 sequence (Q7NY09 36-276): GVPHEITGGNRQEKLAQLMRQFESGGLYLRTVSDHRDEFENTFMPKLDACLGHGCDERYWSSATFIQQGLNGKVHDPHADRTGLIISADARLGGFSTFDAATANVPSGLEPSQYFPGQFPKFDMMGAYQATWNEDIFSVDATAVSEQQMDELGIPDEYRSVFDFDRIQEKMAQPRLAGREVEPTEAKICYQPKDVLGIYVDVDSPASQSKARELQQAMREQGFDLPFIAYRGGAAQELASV

Question: Which Kd does the source give for NC(=O)c1ccc[n+]([C@@H]2O[C@H](COP(=O)(O)OP(=O)(O)OC[C@H]3O[C@@H](n4cnc5c(N)ncnc54)[C@H](O)[C@@H]3O)[C@@H](O)[C@H]2O)c1 [NAD^+] here?
Answer: Its Kd is 123 µM.
